Read-outs that look alike come from different tables or passages of the source.
Key:
[1] = Pharmacokinetics in plasma and brain after IP dosing; assay type: in vivo; settings: rat; for Kp: brain and plasma; for Kp / MRT last / half-life: ip
Procedure: Pharmacokinetics studies were carried out at WuXi Apptec, Inc. (Cranbury, NJ, USA) using standard protocols. All animal use and procedures were approved by the WuXi Apptec, Inc., IACUC. Briefly, terminal blood and brain samples were collected from 6 to 8 week old male Sprague Dawley rats (Hilltop Lab Animals, Inc., Scottsdale, PA, USA) at 0.25, 0.5, 1, 2, 4, and 8 h (N = 3 per group per time point) for the determination of plasma concentrations of methylone following intraperitoneal (IP) dosing of 5, 10, or 15 mg/kg methylone. Since these were terminal collections, three independent rats per group were used for each time point in a single PK curve from which PK parameters (Cmax, AUC, etc.) were generated. Samples were collected into K2EDTA tubes on ice and centrifuged at 3000 × g at 4°C for 5 min within 30 min of collection. Plasma samples were stored at −80°C until analysis by liquid chromatography tandem mass spectrometry (LC-MS/MS). The bioanalytical assay provided a lower limit of quantification (LLOQ) of 1 ng/mL and an upper limit of quantification (ULOQ) of 3000 ng/mL for methylone. The plasma concentration-time data were analyzed using Phoenix WinNonlin (version 8.3) to characterize the PK properties of the analyte. The non-compartmental analysis model and the linear/log trapezoidal method were applied to the calculation of the PK parameters.

serotonin uptake = settings: cited from earlier work
[2] = test system: vesicular monoamine transporter 2 (VMAT2); set-up: method as in PMID 10528135; settings: compared with MDMA; cited from earlier work
mice = test system: mice; set-up: method as in PMID 23603357; settings: 3–4 doses of 25 mg/kg over a 2-day period, 3 days after dosing; cited from earlier work
PTSD patients = test system: PTSD patients; set-up: method as in earlier work; settings: retrospective clinical case series; cited from earlier work
[3] = test system: serotonin receptor 1A (5-HTR1A); set-up: method as in PMID 23583454; settings: not all reports support activity ([43]); cited from earlier work
[4] = test system: other 5-HT, NE, or DA receptors; set-up: method as in PMID 31063768; settings: cited from earlier work
rodents = test system: rodents; set-up: method as in PMID 23839026, PMID 28882561, PMID 22509960, PMID 22922498; settings: cited from earlier work
healthy volunteers = settings: cited from earlier work
[5] = binge-dosing regimen; cited from earlier work
[6] = male, Sprague Dawley, plasma, 5 mg/kg IP
[7] = male, Sprague Dawley, plasma, 10 mg/kg IP
[8] = male, Sprague Dawley, plasma, 15 mg/kg IP

CNC(C)C(=O)c1ccc2c(c1)OCO2 (stereo not shown) [methylone, 3,4-methylenedioxy-N-methylcathinone]
plasma concentration ([1]; after 5 mg/kg dose): approximately 8 μM | plasma concentration ([1]; after 10 mg/kg dose): ~18 µM | AUC0–last ([1]; brain, 5 mg/kg IP): 1661 ng·h/g | Tlast ([1]; brain, 5 mg/kg IP): 4.00 h | AUC0–last ([1]; brain, 10 mg/kg IP): 5576 ng·h/g | Tlast ([1]; brain, 10 mg/kg IP): 4.00 h | AUC0–last ([1]; brain, 15 mg/kg IP): 13201 ng·h/g | Tlast ([1]; brain, 15 mg/kg IP): 8.00 h | Kp ([1]; male, Sprague Dawley, 5 mg/kg, 5 mg/kg IP, read-out: AUC ratio (brain: plasma)): 1.83 | Kp ([1]; male, Sprague Dawley, 10 mg/kg, 10 mg/kg IP, read-out: AUC ratio (brain: plasma)): 1.72 | Kp ([1]; male, Sprague Dawley, 15 mg/kg, 15 mg/kg IP, read-out: AUC ratio (brain: plasma)): 1.8 | Kp ([1]; male, Sprague Dawley, 15 mg/kg, across 5, 10, 15 mg/kg IP, read-out: brain to plasma AUC ratio): ~1.8 | MRT last ([1]; male, Sprague Dawley, brain, 5 mg/kg, brain, 5 mg/kg IP, read-out: MRT0–last): 41.8 min | half-life ([1]; male, Sprague Dawley, brain, 5 mg/kg, brain, 5 mg/kg IP, read-out: T1/2 (converted)): 41.5 min | MRT last ([1]; male, Sprague Dawley, brain, 10 mg/kg, brain, 10 mg/kg IP, read-out: MRT0–last): 61.8 min | half-life ([1]; male, Sprague Dawley, brain, 10 mg/kg, brain, 10 mg/kg IP, read-out: T1/2 (converted)): 36.4 min | MRT last ([1]; male, Sprague Dawley, brain, 15 mg/kg, brain, 15 mg/kg IP, read-out: MRT0–last): 60.6 min | half-life ([1]; male, Sprague Dawley, brain, 15 mg/kg, brain, 15 mg/kg IP, read-out: T1/2 (converted)): 53 min | MRT last ([1]; male, Sprague Dawley, plasma, 5 mg/kg, plasma, 5 mg/kg IP, read-out: MRT0–last): 40 min | half-life ([1]; male, Sprague Dawley, plasma, 5 mg/kg, plasma, 5 mg/kg IP, read-out: T1/2 (converted)): 35.9 min | MRT last ([1]; male, Sprague Dawley, plasma, 10 mg/kg, plasma, 10 mg/kg IP, read-out: MRT0–last): 64.2 min | half-life ([1]; male, Sprague Dawley, plasma, 10 mg/kg, plasma, 10 mg/kg IP, read-out: T1/2 (converted)): 40.4 min | MRT last ([1]; male, Sprague Dawley, plasma, 15 mg/kg, across 5, 10, 15 mg/kg IP, read-out: mean residence time (MRT0–last)): 42 to 67.8 min | half-life ([1]; male, Sprague Dawley, plasma, 15 mg/kg, across 5, 10, 15 mg/kg IP, read-out: terminal elimination half-life (T1/2)): 36 to 48 min | MRT last ([1]; male, Sprague Dawley, plasma, 15 mg/kg, plasma, 15 mg/kg IP, read-out: MRT0–last): 67.8 min | half-life ([1]; male, Sprague Dawley, plasma, 15 mg/kg, plasma, 15 mg/kg IP, read-out: T1/2 (converted)): 48.7 min | Cmax ([1]; male, Sprague Dawley, brain, 5 mg/kg IP): 3510 ng/g | Cmax ([1]; male, Sprague Dawley, brain, 10 mg/kg IP): 8020 ng/g | Cmax ([1]; male, Sprague Dawley, brain, 15 mg/kg IP): 20000 ng/g | AUC(0-t) [1, 6]: 908 ng·h/mL | Cmax [1, 6]: 1980 ng/mL | AUC(0-t) [1, 7]: 3240 ng·h/mL | Cmax [1, 7]: 4510 ng/mL | AUC(0-t) [1, 8]: 7320 ng·h/mL | Cmax [1, 8]: 8470 ng/mL | Tmax ([1]; male, Sprague Dawley, plasma, 5, 10 or 15 mg/kg IP): 15 min | Tlast ([1]; plasma, 5 mg/kg IP): 4.00 h | Tlast ([1]; plasma, 10 mg/kg IP): 8.00 h | Tlast ([1]; plasma, 15 mg/kg IP): 8.00 h | lower potency for inhibition of serotonin uptake vs MDMA (serotonin uptake; compared with MDMA): 3–4 × | less potent inhibitor of serotonin uptake than MDMA (serotonin uptake; in vitro, compared with MDMA): 3–4 fold | IC50 (serotonin uptake; in vitro, read-out: IC50 for inhibition of serotonin uptake): 5.75 µM | lower potency at VMAT2 than MDMA [2]: > 10 fold | immobility in the FST (mice): increased immobility | effect on symptoms of PTSD (PTSD patients): alleviates symptoms of PTSD | activity at 5-HTR1A [3]: partial agonist | affinity for other 5-HT, NE, or DA receptors [4]: weak, if any, affinity | locomotor activity (rodents): increase locomotor activity | tolerability in two Phase 1 studies (healthy volunteers; healthy volunteers): well-tolerated | tolerability in phase 1 clinical study (healthy volunteers; human doses approximately 100–150 mg): well tolerated, with no severe adverse events reported | tolerability in clinical studies (healthy volunteers; human): well tolerated | effect on anxiety [5]: anxiogenic effects

From publication PMC9873307, “Methylone, a rapid acting entactogen with robust anxiolytic and antidepressant-like activity” (Frontiers in Psychiatry, 2023)
